In US12662490B2, “Heterocyclic compounds” (Hoffmann-La Roche Inc., priority 2019, dated 2026):

Molecular target: T1, MAGL (Homo sapiens, UniProt Q99685)
T1 sequence (Q99685 1-303): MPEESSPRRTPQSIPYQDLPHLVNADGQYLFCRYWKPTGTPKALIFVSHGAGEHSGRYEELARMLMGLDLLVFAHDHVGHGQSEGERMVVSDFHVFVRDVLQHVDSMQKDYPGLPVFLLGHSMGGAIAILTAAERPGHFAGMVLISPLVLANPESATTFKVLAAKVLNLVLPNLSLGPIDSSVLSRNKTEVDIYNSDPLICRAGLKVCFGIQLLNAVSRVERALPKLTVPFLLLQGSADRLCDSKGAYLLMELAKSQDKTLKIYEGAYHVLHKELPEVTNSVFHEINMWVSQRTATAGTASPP
Test: 2-AG assay (MAGL inhibitory activity; hydrolysis of 2-arachidonoylglycerol to arachidonic acid followed by mass spectrometry)
Type: biochemical
Conditions: 15 min preincubation at RT, 8 μM 2-arachidonoylglycerol, 30 min at RT, RapidFire MS readout
Protocol: Compounds were profiled for MAGL inhibitory activity by determining the enzymatic activity by following the hydrolysis of the natural substrate 2-arachidonoylglycerol (2-AG) resulting in arachidonic acid, which can be followed by mass spectrometry. This assay is hereinafter abbreviated “2-AG assay”.
The 2-AG assay was carried out in 384 well assay plates (PP, Greiner Cat #784201) in a total volume of 20 μL. Compound dilutions were made in […] (VWR Chemicals 23500.297) in a polypropylene plate in 3-fold dilution steps to give a final concentration range in the assay from 12.5 μM to […]. 0.25 μL compound dilutions (100% DMSO) were added to 9 μL MAGL in assay buffer (50 mM TRIS (GIBCO, 15567-027), 1 mM EDTA (Fluka, 03690-100 mL), 0.010 (v/v) Tween. After shaking, the plate was incubated for 15 min at RT. To start the reaction, 10 μL 2-arachidonoylglycerol in assay buffer was added. The final concentrations in the assay was […] and 8 μM 2-arachidonoylglyerol. After shaking and 30 min incubation at RT, the reaction was quenched by the addition of 40 μL of ACN containing 4 μM of d8-arachidonic acid. The amount of arachidonic acid was traced by an online SPE system (Agilent Rapidfire) coupled to a triple quadrupole mass spectrometer (Agilent 6460). A C18 SPE cartridge (G9205A) was used in an ACN/water liquid setup. The mass spectrometer was operated in negative electrospray mode following the mass transitions 303.1→259.1 for arachidonic acid and 311.1→267.0 for d8-arachidonic acid. The activity of the compounds was calculated based on the ratio of intensities [arachidonic acid/d8-arachidonic acid].

| SMILES | IC50 [nM] |
| --- | --- |
| COc1cccc(C(=O)N2CCN3C[C@H](c4ccc(F)c(-c5ccccc5)c4)OC[C@@H]3C2)c1Cl [Example 12, [(3S,9aS)-3-(4-fluoro-3-phenyl-phenyl)-3,4,6,7,9,9a-hexahydro-1H-pyrazino[2,1-c][1,4]oxazin-8-yl]-(2-chloro-3-methoxy-phenyl)methanone] | 575 |
| CC#Cc1cc([C@@H]2CN3CCN(C(=O)c4cccc(OC)c4Cl)C[C@H]3CO2)ccc1F [Example 13, [(3R,9aS)-3-(4-fluoro-3-prop-1-ynyl-phenyl)-3,4,6,7,9,9a-hexahydro-1H-pyrazino[2,1-c][1,4]oxazin-8-yl]-(2-chloro-3-methoxy-phenyl)methanone] | 238 |
| COc1cccc(C(=O)N2CCN3C[C@@H](c4ccc(F)c(C#N)c4)OC[C@@H]3C2)c1Cl [Example 14, [(3R,9aS)-3-(3-cyano-4-fluoro-phenyl)-3,4,6,7,9,9a-hexahydro-1H-pyrazino[2,1-c][1,4]oxazin-8-yl]-(2-chloro-3-methoxy-phenyl)methanone] | 154 |
| O=C(c1cnc2ccccc2c1Cl)N1CCN2C[C@@H](c3ccc(F)c(Cl)c3)OC[C@@H]2C1 [Example 16, [(3R,9aS)-3-(3-chloro-4-fluoro-phenyl)-3,4,6,7,9,9a-hexahydro-1H-pyrazino[2,1-c][1,4]oxazin-8-yl]-(4-chloro-3-quinolyl)methanone] | 132 |
| COc1cc(OC)c(Cl)c(C(=O)N2CCN3C[C@H](c4ccc(F)c(Cl)c4)OC[C@@H]3C2)c1 [Example 17, [(3S,9aS)-3-(3-chloro-4-fluoro-phenyl)-3,4,6,7,9,9a-hexahydro-1H-pyrazino[2,1-c][1,4]oxazin-8-yl]-(2-chloro-3,5-dimethoxy-phenyl)methanone] | 4570 |
| COc1cc(OC)c(Cl)c(C(=O)N2CCN3C[C@@H](c4ccc(F)c(Cl)c4)OC[C@@H]3C2)c1 [Example 18, [(3R,9aS)-3-(3-chloro-4-fluoro-phenyl)-3,4,6,7,9,9a-hexahydro-1H-pyrazino[2,1-c][1,4]oxazin-8-yl]-(2-chloro-3,5-dimethoxy-phenyl)methanone] | 51.2 |
| COc1ccc(C(=O)N2CCN3C[C@@H](c4ccc(F)c(Cl)c4)OC[C@@H]3C2)c(Cl)c1OC [Example 19, [(3R,9aS)-3-(3-chloro-4-fluoro-phenyl)-3,4,6,7,9,9a-hexahydro-1H-pyrazino[2,1-c][1,4]oxazin-8-yl]-(2-chloro-3,4-dimethoxy-phenyl)methanone] | 305 |
| Cc1cccc(C(=O)N2CCN3C[C@@H](c4ccc(F)c(Cl)c4)OC[C@@H]3C2)c1C#N [Example 20, 2-[(3R,9aS)-3-(3-chloro-4-fluoro-phenyl)-3,4,6,7,9,9a-xahydro-1H-pyrazino[2,1-c][1,4]oxazine-8-carbonyl]-6-methyl-benzonitrile] | 121 |
| O=C(c1cccc(OC(F)(F)F)c1F)N1CCN2C[C@@H](c3ccc(F)c(Cl)c3)OC[C@@H]2C1 [Example 21, [(3R,9aS)-3-(3-chloro-4-fluoro-phenyl)-3,4,6,7,9,9a-hexahydro-1H-pyrazino[2,1-c][1,4]oxazin-8-yl]-[2-fluoro-3-(trifluoromethoxy)phenyl]methanone] | 746 |
| O=C(c1cccc(-c2ccccc2)c1Cl)N1CCN2C[C@@H](c3ccc(F)c(Cl)c3)OC[C@@H]2C1 [Example 22, [(3R,9aS)-3-(3-chloro-4-fluoro-phenyl)-3,4,6,7,9,9a-hexahydro-1H-pyrazino[2,1-c][1,4]oxazin-8-yl]-(2-chloro-3-phenyl-phenyl)methanone] | 16.1 |
| COc1ccccc1-c1cccc(C(=O)N2CCN3C[C@@H](c4ccc(F)c(Cl)c4)OC[C@@H]3C2)c1Cl [Example 23, [(3R,9aS)-3-(3-chloro-4-fluoro-phenyl)-3,4,6,7,9,9a-hexahydro-1H-pyrazino[2,1-c][1,4]oxazin-8-yl]-[2-chloro-3-(2-methoxyphenyl)phenyl]methanone] | 26.3 |
